Source: PubChem BioAssay (NCI)
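Tested at 5 concentrations; 48 h exposure; 96-well plates; endpoints linearly interpolated, else capped at highest concentration. GI50 = concentration required for 50% inhibition of growth. TGI is the concentration that stops growth completely.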

Columns and labels:
Test in all cases: NCI anticancer screen, dose series, 48 h
NCI-H226 lung = system: NCI-H226 lung
HOP-62 NSCLC = system: HOP-62 NSCLC
UO-31 renal = system: UO-31 renal
HT29 colon = system: HT29 colon
BT-549 breast = system: BT-549 breast
MDA-MB-231 breast = system: MDA-MB-231 breast
SF-539 CNS = system: SF-539 CNS
SK-MEL-2 melanoma = system: SK-MEL-2 melanoma
SF-268 CNS = system: SF-268 CNS
HCT-15 colon = system: HCT-15 colon
CAKI-1 renal = system: CAKI-1 renal
UACC-257 melanoma = system: UACC-257 melanoma
HCT-116 colon = system: HCT-116 colon
TK-10 renal = system: TK-10 renal
OVCAR-3 ovarian = system: OVCAR-3 ovarian
M14 melanoma = system: M14 melanoma
HL-60(TB) leukemia = system: HL-60(TB) leukemia
SF-295 CNS = system: SF-295 CNS
NCI-H23 lung = system: NCI-H23 lung
K-562 leukemia = system: K-562 leukemia
MDA-MB-435 = system: MDA-MB-435
HCC-2998 colon = system: HCC-2998 colon
SNB-75 CNS = system: SNB-75 CNS
NCI/ADR-RES ovarian = system: NCI/ADR-RES ovarian
HOP-92 NSCLC = system: HOP-92 NSCLC
IGROV1 ovarian = system: IGROV1 ovarian
NCI-H460 lung = system: NCI-H460 lung
LOX IMVI melanoma = system: LOX IMVI melanoma
RXF 393 renal = system: RXF 393 renal
A498 renal = system: A498 renal
OVCAR-8 ovarian = system: OVCAR-8 ovarian
DU-145 prostate = system: DU-145 prostate
COLO 205 colon = system: COLO 205 colon
OVCAR-4 ovarian = system: OVCAR-4 ovarian
SNB-19 CNS = system: SNB-19 CNS
MALME-3M melanoma = system: MALME-3M melanoma
EKVX NSCLC = system: EKVX NSCLC
SR leukemia = system: SR leukemia
ACHN renal = system: ACHN renal
OVCAR-5 ovarian = system: OVCAR-5 ovarian
SK-MEL-28 melanoma = system: SK-MEL-28 melanoma
PC-3 prostate = system: PC-3 prostate
CCRF-CEM leukemia = system: CCRF-CEM leukemia
HS 578T breast = system: HS 578T breast
UACC-62 melanoma = system: UACC-62 melanoma
MOLT-4 leukemia = system: MOLT-4 leukemia
786-0 renal = system: 786-0 renal
RPMI-8226 leukemia = system: RPMI-8226 leukemia
SW-620 colon = system: SW-620 colon
T-47D breast = system: T-47D breast
SK-MEL-5 melanoma = system: SK-MEL-5 melanoma
A549 NSCLC = system: A549 NSCLC
U251 CNS = system: U251 CNS
NCI-H522 lung = system: NCI-H522 lung
MCF7 breast = system: MCF7 breast
KM12 colon = system: KM12 colon
SK-OV-3 ovarian = system: SK-OV-3 ovarian
SN12C renal = system: SN12C renal

In the case of `O=S(=O)(Nc1ccc(Cl)cc1)c1ccc(-c2cnc(C3CC3)o2)cc1`, the GI50 (NCI-H226 lung) is reported as 4.86 µM, the TGI (NCI-H226 lung) is reported as 23.1 µM and the GI50 (HOP-62 NSCLC) is reported as 0.791 µM. For the same molecule, the TGI (HOP-62 NSCLC) was 18.6 µM, the GI50 (UO-31 renal) was 1.14 µM and the TGI (UO-31 renal) was 15.5 µM. It also gave a GI50 (HT29 colon) of 0.414 µM, a TGI (HT29 colon) of 14.4 µM and a GI50 (BT-549 breast) of 0.637 µM. The TGI (BT-549 breast) was 21.4 µM, the GI50 (MDA-MB-231 breast) was 1.67 µM and the TGI (MDA-MB-231 breast) was 15.1 µM. The GI50 (SF-539 CNS) was 0.513 µM, the TGI (SF-539 CNS) was 3.43 µM and the GI50 (SK-MEL-2 melanoma) was 0.766 µM. For the same molecule, the TGI (SK-MEL-2 melanoma) was 21.2 µM, the GI50 (SF-268 CNS) was 1.85 µM and the TGI (SF-268 CNS) was 23 µM. It also gave a GI50 (HCT-15 colon) of 0.368 µM, a TGI (HCT-15 colon) of 15.1 µM and a GI50 (CAKI-1 renal) of 0.586 µM. For the same molecule, the TGI (CAKI-1 renal) was 16.5 µM, the GI50 (UACC-257 melanoma) was 8.36 µM and the TGI (UACC-257 melanoma) was 28.8 µM. The GI50 (HCT-116 colon) was 0.413 µM, the TGI (HCT-116 colon) was 15.9 µM and the GI50 (TK-10 renal) was 6.49 µM. It also gave a TGI (TK-10 renal) of 21.9 µM, a GI50 (OVCAR-3 ovarian) of 0.372 µM and a TGI (OVCAR-3 ovarian) of 3.73 µM. It also gave a GI50 (M14 melanoma) of 0.406 µM, a TGI (M14 melanoma) of 16.9 µM and a GI50 (HL-60(TB) leukemia) of 0.388 µM. It also gave a TGI (HL-60(TB) leukemia) of 8.58 µM, a GI50 (SF-295 CNS) of 0.425 µM and a TGI (SF-295 CNS) of 12.5 µM. The GI50 (NCI-H23 lung) was 2.28 µM, the TGI (NCI-H23 lung) was 16.4 µM and the GI50 (K-562 leukemia) was 0.353 µM. The TGI (K-562 leukemia) was > 75 µM, the GI50 (MDA-MB-435) was 0.15 µM and the TGI (MDA-MB-435) was 0.511 µM. It also gave a GI50 (HCC-2998 colon) of 2.02 µM, a TGI (HCC-2998 colon) of 15.3 µM and a GI50 (SNB-75 CNS) of 0.191 µM. It also gave a TGI (SNB-75 CNS) of 1.54 µM, a GI50 (NCI/ADR-RES ovarian) of 0.41 µM and a TGI (NCI/ADR-RES ovarian) of 8.94 µM. For the same molecule, the GI50 (HOP-92 NSCLC) was 1.81 µM, the TGI (HOP-92 NSCLC) was 18.1 µM and the GI50 (IGROV1 ovarian) was 0.637 µM. For the same molecule, the TGI (IGROV1 ovarian) was 15.2 µM, the GI50 (NCI-H460 lung) was 0.395 µM and the TGI (NCI-H460 lung) was 7.28 µM. It also gave a GI50 (LOX IMVI melanoma) of 0.595 µM, a TGI (LOX IMVI melanoma) of 18.6 µM and a GI50 (RXF 393 renal) of 0.683 µM. For the same molecule, the TGI (RXF 393 renal) was 4.98 µM, the GI50 (A498 renal) was 0.168 µM and the TGI (A498 renal) was 0.732 µM. For the same molecule, the GI50 (OVCAR-8 ovarian) was 2.54 µM, the TGI (OVCAR-8 ovarian) was 22.4 µM and the GI50 (DU-145 prostate) was 2.06 µM. The TGI (DU-145 prostate) was 15.3 µM, the GI50 (COLO 205 colon) was 1.27 µM and the TGI (COLO 205 colon) was 10 µM. The GI50 (OVCAR-4 ovarian) was 2.64 µM, the TGI (OVCAR-4 ovarian) was 17.9 µM and the GI50 (SNB-19 CNS) was 0.847 µM. The TGI (SNB-19 CNS) was 18.2 µM, the GI50 (MALME-3M melanoma) was 0.743 µM and the TGI (MALME-3M melanoma) was 20.3 µM. For the same molecule, the GI50 (EKVX NSCLC) was 2.13 µM, the TGI (EKVX NSCLC) was 18.8 µM and the GI50 (SR leukemia) was 0.21 µM. For the same molecule, the TGI (SR leukemia) was 28.5 µM, the GI50 (ACHN renal) was 1.25 µM and the TGI (ACHN renal) was 18.1 µM. The GI50 (OVCAR-5 ovarian) was 3.69 µM, the TGI (OVCAR-5 ovarian) was 17.9 µM and the GI50 (SK-MEL-28 melanoma) was 5.72 µM. For the same molecule, the TGI (SK-MEL-28 melanoma) was 21.9 µM, the GI50 (PC-3 prostate) was 1 µM and the TGI (PC-3 prostate) was 15.5 µM. The GI50 (CCRF-CEM leukemia) was 0.564 µM, the TGI (CCRF-CEM leukemia) was 19.9 µM and the GI50 (HS 578T breast) was 0.372 µM. For the same molecule, the TGI (HS 578T breast) was 6.86 µM, the GI50 (UACC-62 melanoma) was 0.584 µM and the TGI (UACC-62 melanoma) was 13.7 µM. For the same molecule, the GI50 (MOLT-4 leukemia) was 0.786 µM, the TGI (MOLT-4 leukemia) was 41.3 µM and the GI50 (786-0 renal) was 1.67 µM. For the same molecule, the TGI (786-0 renal) was 20.2 µM, the GI50 (RPMI-8226 leukemia) was 1.06 µM and the TGI (RPMI-8226 leukemia) was 22.7 µM. For the same molecule, the GI50 (SW-620 colon) was 0.378 µM, the TGI (SW-620 colon) was 14 µM and the GI50 (T-47D breast) was 0.86 µM. It also gave a TGI (T-47D breast) of 17.4 µM, a GI50 (SK-MEL-5 melanoma) of 0.768 µM and a TGI (SK-MEL-5 melanoma) of 12.8 µM. It also gave a GI50 (A549 NSCLC) of 1.49 µM, a TGI (A549 NSCLC) of 22.3 µM and a GI50 (U251 CNS) of 0.659 µM. For the same molecule, the TGI (U251 CNS) was 17.6 µM, the GI50 (NCI-H522 lung) was 0.367 µM and the TGI (NCI-H522 lung) was 11.1 µM. For the same molecule, the GI50 (MCF7 breast) was 0.383 µM, the TGI (MCF7 breast) was 15 µM and the GI50 (KM12 colon) was 0.431 µM. The TGI (KM12 colon) was 16.2 µM, the GI50 (SK-OV-3 ovarian) was 2.07 µM and the TGI (SK-OV-3 ovarian) was 15.6 µM. For the same molecule, the GI50 (SN12C renal) was 1.09 µM and the TGI (SN12C renal) was 19.5 µM.
